Results published in ChEMBL document CHEMBL4396909, “Evolution of HIV-1 reverse transcriptase and integrase dual inhibitors: Recent advances and developments” (Eur J Med Chem, 2019).

Test system: Human immunodeficiency virus 1
Assay: Antiviral activity against HIV-1 infected in HEK293 cells preincubated for 4 hrs with cell followed by viral infection measured after 24 hrs by luciferase reporter gene assay
Format: functional, organism-based
Settings: Human immunodeficiency virus 1, HEK293

- IC50: 0.48 µM
SMILES: O=C(O)C(=O)CC(=O)c1cc(OCc2ccccc2)cc(OCc2ccccc2)c1
